Experimental data taken from patent US11066396B2 (priority 2016, dated 2021).

Tests used:
HDAC8 = HDAC8 (Homo sapiens (Human), UniProt Q9BY41); settings: read-out: HDAC8 IC50
HDAC1 = HDAC1 (Homo sapiens (Human), UniProt Q13547); settings: read-out: HDAC1 IC50
HDAC1, sequence (Q13547 whole entry): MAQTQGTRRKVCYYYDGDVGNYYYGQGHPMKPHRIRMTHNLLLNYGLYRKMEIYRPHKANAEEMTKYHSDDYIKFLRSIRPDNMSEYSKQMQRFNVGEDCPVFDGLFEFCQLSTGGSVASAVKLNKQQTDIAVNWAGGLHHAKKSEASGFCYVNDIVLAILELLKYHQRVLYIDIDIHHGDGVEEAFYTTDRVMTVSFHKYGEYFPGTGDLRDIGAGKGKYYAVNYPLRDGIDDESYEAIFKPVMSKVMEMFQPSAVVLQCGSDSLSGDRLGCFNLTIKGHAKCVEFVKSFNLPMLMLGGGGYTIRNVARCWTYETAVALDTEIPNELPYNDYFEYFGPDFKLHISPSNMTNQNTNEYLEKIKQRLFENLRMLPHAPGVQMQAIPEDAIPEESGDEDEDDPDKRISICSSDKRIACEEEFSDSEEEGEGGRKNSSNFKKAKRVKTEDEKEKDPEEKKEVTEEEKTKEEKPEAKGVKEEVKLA

HDAC8, sequence (Q9BY41 whole entry): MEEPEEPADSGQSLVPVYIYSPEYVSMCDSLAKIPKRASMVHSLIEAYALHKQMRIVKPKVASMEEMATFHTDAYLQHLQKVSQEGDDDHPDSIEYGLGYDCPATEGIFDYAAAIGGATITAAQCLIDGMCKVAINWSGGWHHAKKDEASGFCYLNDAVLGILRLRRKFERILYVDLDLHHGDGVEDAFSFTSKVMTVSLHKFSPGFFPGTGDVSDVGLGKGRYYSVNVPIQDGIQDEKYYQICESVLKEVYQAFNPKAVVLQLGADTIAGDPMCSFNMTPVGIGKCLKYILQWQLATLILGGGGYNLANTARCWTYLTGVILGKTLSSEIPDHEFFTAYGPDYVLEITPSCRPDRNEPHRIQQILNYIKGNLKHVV

Compound	IC50 (HDAC8)	IC50 (HDAC1)
CC(C)(C(=O)N(Cc1ccc(-c2noc(C(F)(F)F)n2)cn1)c1cccc(F)c1)n1cncn1 [Example 392, N-(3-fluorophenyl)-2-methyl-2-(1H-1,2,4-triazol-1-yl)-N-({5-[5-(trifluoromethyl)-1,2,4-oxadiazol-3-yl]pyridin-2-yl}methyl)propanamide]	3100 nM	480 nM
Cc1n[nH]c(CC(=O)N(Cc2ccc(-c3noc(C(F)(F)F)n3)cn2)c2cccc(F)c2)n1 [Example 393, N-(3-fluorophenyl)-2-(3-methyl-1H-1,2,4-triazol-5-yl)-N-({5-[5-(trifluoromethyl)-1,2,4-oxadiazol-3-yl]pyridin-2-yl}methyl)acetamide]	3400 nM	410 nM
Cc1ncc(CC(=O)N(Cc2ccc(-c3noc(C(F)(F)F)n3)cn2)c2cccc(F)c2)s1 [Example 394, N-(3-fluorophenyl)-2-(2-methyl-1,3-thiazol-5-yl)-N-({5-[5-(trifluoromethyl)-1,2,4-oxadiazol-3-yl]pyridin-2-yl}methyl)acetamide]	2400 nM	730 nM
Cc1nnc(CC(=O)N(Cc2ccc(-c3noc(C(F)(F)F)n3)cn2)c2cccc(F)c2)s1 [Example 395, N-(3-fluorophenyl)-2-(5-methyl-1,3,4-thiadiazol-2-yl)-N-({5-[5-(trifluoromethyl)-1,2,4-oxadiazol-3-yl]pyridin-2-yl}methyl)acetamide]	1300 nM	330 nM
Cc1noc(CC(=O)N(Cc2ccc(-c3noc(C(F)(F)F)n3)cn2)c2cccc(F)c2)n1 [Example 396, N-(3-fluorophenyl)-2-(3-methyl-1,2,4-oxadiazol-5-yl)-N-({5-[5-(trifluoromethyl)-1,2,4-oxadiazol-3-yl]pyridin-2-yl}methyl)acetamide]	1000 nM	380 nM
O=C(Cc1[nH]nc2ccccc12)N(Cc1ccc(-c2noc(C(F)(F)F)n2)cn1)c1cccc(F)c1 [Example 397, N-(3-fluorophenyl)-2-(2H-indazol-3-yl)-N-({5-[5-(trifluoromethyl)-1,2,4-oxadiazol-3-yl]pyridin-2-yl}methyl)acetamide]	1100 nM	420 nM
CC(C)c1ncncc1C(=O)N(Cc1ccc(-c2noc(C(F)(F)F)n2)cn1)c1cccc(F)c1 [Example 399, N-(3-fluorophenyl)-4-(1-methylethyl)-N-({5-[5-(trifluoromethyl)-1,2,4-oxadiazol-3-yl]pyridin-2-yl}methyl)pyrimidine-5-carboxamide]	3100 nM	930 nM
Cc1ccc(C(=O)N(Cc2ccc(-c3noc(C(F)(F)F)n3)cn2)c2cccc(F)c2)nn1 [Example 400, N-(3-fluorophenyl)-6-methyl-N-({5-[5-(trifluoromethyl)-1,2,4-oxadiazol-3-yl]pyridin-2-yl}methyl)pyridazine-3-carboxamide]	3200 nM	260 nM
Cc1ncc(C(=O)N(Cc2ccc(-c3noc(C(F)(F)F)n3)cn2)c2cccc(F)c2)cn1 [Example 401, N-(3-fluorophenyl)-2-methyl-N-({5-[5-(trifluoromethyl)-1,2,4-oxadiazol-3-yl]pyridin-2-yl}methyl)pyrimidine-5-carboxamide]	3300 nM	290 nM
CS(=O)(=O)N1CC(C(=O)N(Cc2ccc(-c3noc(C(F)(F)F)n3)cn2)c2cccc(F)c2)C1 [Example 404, N-(3-fluorophenyl)-1-(methylsulfonyl)-N-({5-[5-(trifluoromethyl)-1,2,4-oxadiazol-3-yl]pyridin-2-yl}methyl)azetidine-3-carboxamide]	1300 nM	280 nM
O=C(C1CCN(C2CC2)CC1)N(Cc1ccc(-c2noc(C(F)(F)F)n2)cn1)c1cccc(F)c1 [Example 406, 1-cyclopropyl-N-(3-fluorophenyl)-N-({5-[5-(trifluoromethyl)-1,2,4-oxadiazol-3-yl]pyridin-2-yl}methyl)piperidine-4-carboxamide]	1800 nM	270 nM
FC(F)(F)c1nc(-c2ccc(CNc3ccc4c[nH]nc4c3)cc2)no1 [Example 411, N-{4-[5-(trifluoromethyl)-1,2,4-oxadiazol-3-yl]benzyl}-2H-indazol-6-amine]	2200 nM	1000 nM
FC(F)(F)c1nc(-c2ccc(CNc3cccc4[nH]ncc34)cc2)no1 [Example 415, N-{4-[5-(trifluoromethyl)-1,2,4-oxadiazol-3-yl]benzyl}-1H-indazol-4-amine]	2500 nM	1600 nM
FC(F)(F)c1nc(-c2ccc(CNc3cnccn3)cc2)no1 [Example 417, N-{4-[5-(trifluoromethyl)-1,2,4-oxadiazol-3-yl]benzyl}pyrazin-2-amine]	1900 nM	2600 nM
OCc1ccnc(NCc2ccc(-c3noc(C(F)(F)F)n3)cc2)n1 [Example 418, [2-({4-[5-(trifluoromethyl)-1,2,4-oxadiazol-3-yl]benzyl}amino)pyrimidin-4-yl]methanol]	3200 nM	3600 nM
FC(F)(F)c1nc(-c2ccc(CNc3cncnc3)cc2)no1 [Example 419, N-{4-[5-(trifluoromethyl)-1,2,4-oxadiazol-3-yl]benzyl}pyrimidin-5-amine]	1900 nM	2600 nM
COCc1cc(=O)n(Cc2ccc(-c3noc(C(F)(F)F)n3)cn2)c2ccccc12 [Example 420, 4-(methoxymethyl)-1-({5-[5-(trifluoromethyl)-1,2,4-oxadiazol-3-yl]pyridin-2-yl}methyl)quinolin-2(1H)-one]	1000 nM	110 nM

Compound	IC50 (HDAC8)	IC50 (HDAC1)
FC(F)(F)c1nc(-c2ccnc(OC[C@@H]3C[C@@H]3c3ncccn3)c2)no1 [Example 424, 2-{(1S,2R)-2-[({4-[5-(trifluoromethyl)-1,2,4-oxadiazol-3-yl]pyridin-2-yl}oxy)methyl]cyclopropyl}pyrimidine]	320 nM	2600 nM
COCCN1Cc2ccccc2N(Cc2ccc(-c3noc(C(F)(F)F)n3)cn2)C1=O [Example 429, 3-(2-methoxyethyl)-1-({5-[5-(trifluoromethyl)-1,2,4-oxadiazol-3-yl]pyridin-2-yl}methyl)-3,4-dihydroquinazolin-2(1H)-one]	2300 nM	460 nM
FC(F)(F)c1nc(-c2ccc(CNc3[nH]nc4ccccc34)nc2)no1 [Example 430, N-({5-[5-(trifluoromethyl)-1,2,4-oxadiazol-3-yl]pyridin-2-yl}methyl)-2H-indazol-3-amine]	2000 nM	530 nM
FC(F)(F)c1nc(-c2ccc(CNc3c[nH]nn3)nc2)no1 [Example 431, N-({5-[5-(trifluoromethyl)-1,2,4-oxadiazol-3-yl]pyridin-2-yl}methyl)-1H-1,2,3-triazol-4-amine]	1900 nM	4300 nM
FC(F)(F)c1nc(-c2ccc(CNc3cnsc3)nc2)no1 [Example 433, N-({5-[5-(trifluoromethyl)-1,2,4-oxadiazol-3-yl]pyridin-2-yl}methyl)isothiazol-4-amine]	900 nM	890 nM
FC(F)(F)c1nc(-c2ccc(CNc3cnoc3)nc2)no1 [Example 434, N-({5-[5-(trifluoromethyl)-1,2,4-oxadiazol-3-yl]pyridin-2-yl}methyl)isoxazol-4-amine]	1200 nM	1100 nM
C[Si]1(C)CCC(NCc2ccc(-c3noc(C(F)(F)F)n3)cn2)CC1 [Example 436, 1,1-dimethyl-N-({5-[5-(trifluoromethyl)-1,2,4-oxadiazol-3-yl]pyridin-2-yl}methyl)silinan-4-amine]	4200 nM	1200 nM
CN(C)C(=O)c1cccc(NCc2ccc(-c3noc(C(F)(F)F)n3)cn2)c1 [Example 438, N,N-dimethyl-3-[({5-[5-(trifluoromethyl)-1,2,4-oxadiazol-3-yl]pyridin-2-yl}methyl)amino]benzamide]	1000 nM	520 nM
O=C(NCc1ccccn1)c1cccc(NCc2ccc(-c3noc(C(F)(F)F)n3)cn2)c1 [Example 441, N-(pyridin-2-ylmethyl)-3-[({5-[5-(trifluoromethyl)-1,2,4-oxadiazol-3-yl]pyridin-2-yl}methyl)amino]benzamide]	740 nM	490 nM
NC(=O)c1ccnc(NCc2ccc(-c3noc(C(F)(F)F)n3)cn2)c1 [Example 442, 2-[({5-[5-(trifluoromethyl)-1,2,4-oxadiazol-3-yl]pyridin-2-yl}methyl)amino]pyridine-4-carboxamide]	750 nM	280 nM
CC(C)NC(=O)c1ccccc1NCc1ccc(-c2noc(C(F)(F)F)n2)cn1 [Example 443, N-(1-methylethyl)-2-[({5-[5-(trifluoromethyl)-1,2,4-oxadiazol-3-yl]pyridin-2-yl}methyl)amino]benzamide]	1400 nM	1200 nM
CNC(=O)c1ccccc1NCc1ccc(-c2noc(C(F)(F)F)n2)cn1 [Example 444, N-methyl-2-[({5-[5-(trifluoromethyl)-1,2,4-oxadiazol-3-yl]pyridin-2-yl}methyl)amino]benzamide]	2500 nM	350 nM
NC(=O)c1ncccc1NCc1ccc(-c2noc(C(F)(F)F)n2)cn1 [Example 445, 3-[({5-[5-(trifluoromethyl)-1,2,4-oxadiazol-3-yl]pyridin-2-yl}methyl)amino]pyridine-2-carboxamide]	2200 nM	850 nM
O=C(NC1CC1)c1ccccc1NCc1ccc(-c2noc(C(F)(F)F)n2)cn1 [Example 446, N-cyclopropyl-2-[({5-[5-(trifluoromethyl)-1,2,4-oxadiazol-3-yl]pyridin-2-yl}methyl)amino]benzamide]	1600 nM	240 nM
O=C(Nc1ccccc1)c1ccccc1NCc1ccc(-c2noc(C(F)(F)F)n2)cn1 [Example 447, N-phenyl-2-[({5-[5-(trifluoromethyl)-1,2,4-oxadiazol-3-yl]pyridin-2-yl}methyl)amino]benzamide]	740 nM	970 nM
NC(=O)c1cccc(NCc2ccc(-c3noc(C(F)(F)F)n3)cn2)c1 [Example 449, 3-[({5-[5-(trifluoromethyl)-1,2,4-oxadiazol-3-yl]pyridin-2-yl}methyl)amino]benzamide]	1900 nM	310 nM
